Assay results from patent US11161830B2, “4-pyridone compound or salt thereof, and pharmaceutical composition and formulation including same” (priority 2017, dated 2021).
pIC50: −log10 of the molar value. Where two headings read alike, the source gives them in different places.

Key:
[1] = tested on: HBV (genotype CAT); assay: Test Example 2-2: anti-HBV assay in PXB-cells (fresh human hepatocytes); assay type: cell-based; conditions: Hepatitis B virus, Hepatocyte
Procedure: Using fresh human hepatocytes (PXB-cells, manufactured by PhenixBio Co., Ltd.) collected from a PXB mouse (a chimeric mouse with human hepatocytes), the anti-HBV activity of the representative compounds was evaluated in the following procedure.
The following was used as a medium:
DMEM (manufactured by Sigma)+0.25 μg/mL insulin (manufactured by Wako)+1% penicillin/streptomycin. (manufactured by Sigma)+20 mmol/L HEPES (manufactured by Sigma)+15 μg/mL L-proline (manufactured by Sigma)+50 nmol/L dexamethasone (manufactured by Sigma)+5 ng/mL EGF (manufactured by Peprotech)+0.1 mmol/L ascorbic acid 2-phosphate (manufactured by Wako)+10% FBS+2% DMSO
Each of the test compounds) was further added to the medium to prepare a test solution containing each of the test compounds at various concentrations.
(1) PXB-cells seeded at a seeding density of 2.1×10^5 cells/cm^2 in a 96-well microliter plate were incubated in a 5% CO2 incubator at 37° C. until a day on which the cells were infected.
(2) A HBV (genotype CAT) prepared by transfecting an HBV plasmid into an HepG2 cell was suspended in the medium containing 4% PEG-8000, and added to the plate of (1) at about 30 copies/cell such that the PXB cells were infected (100 μL/well), and the plate was incubated in a 5% CO2 incubator at 37° C. for 1 day.
(3) The culture supernatant on day 1 post infection was removed and the cells were washed three times with DMEM containing 10% FBS and 1% penicillin/streptomycin. Then, the medium was added to the plate (100 μL/well) and the plate was incubated in a 5% CO2 incubator at 37° C. for 1 day.
(4) The culture supernatant on day 2 post infection was removed and the cells were washed three times with DMEM containing 10% FBS and 1% penicillin/streptomycin. Then, the medium was added to the plate (100 μL/well) and the plate was incubated in a 5% CO2 incubator at 37° C. for 5 days.
(5) The culture supernatant on day 7 post infection was removed, the medium was added to the plate (100 μL/well), and the plate was incubated in a 5% CO2 incubator at 37° C. for 5 days.
(6) The culture supernatant on day 12 post infection was removed, the medium was added to the plate (100 μL/well), and the plate was incubated in a 5% CO2 incubator at 37° C. for 5 days.
(§1) (7) The culture supernatant on day 17 post infection was removed, the test solution was added to the plate (100 μL/well), and the plate was incubated in a 5% CO2 incubator at 37° C. for 5 days. As a control without the compound added, the medium was added to the plate (100 μL/well) and the plate was incubated in a 5% CO2 incubator at 37° C. for 5 days.
as §1, with “(8)” for “(7)”, “22” for “17”
as §1, with “(9)” for “(7)”, “27” for “17”
(10) The culture supernatant on day 32 post infection was collected.
(11) The collected culture supernatant on day 32 post infection was treated with a mixture of Buffer AL (manufactured by QIAGEN) and Proteinase K (manufactured by Invitrogen). The amount of HBV-DNA in the obtained solution was absolutely quantified by a real-time PCR method. In addition, the amount of HBsAg in the culture supernatant was absolutely quantified by chemiluminescent enzyme immunoassay using Lumipulse (registered trademark) HBsAg-HQ (manufactured by Fujirebio Inc.). A relative viral load (%) with respect to a control without the compound added was each calculated. […]

[2] = tested on: HBV; assay: Test Example 1-1: anti-HBV assay in HepG2.2.15 cells (test solution 200 μL/well); assay type: cell-based, hepatitis B virus; conditions: Hepatitis B virus, culture supernatant
In short: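 HepG2.2.15 cells (HBV genome, persistent virus production) pre-cultured 2 days, then treated with compound in 0.25% DMSO medium for 4 days, refreshed for 3 more days at 37 °C. Supernatant HBV-DNA measured by real-time PCR and HBsAg by chemiluminescent immunoassay. IC50 = 50% reduction versus DMSO control, linear regression on log concentration.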

Row | SMILES | pIC50 ([1]; read-out: IC50 HBV-DNA, PXB-cells infected with HBV genotype CAT, culture supernatant on day 32 post infection) | pIC50 ([1]; read-out: IC50 HBsAg, PXB-cells infected with HBV genotype CAT, culture supernatant on day 32 post infection) | pIC50 ([2]; read-out: IC50 HBV-DNA) | pIC50 ([2]; read-out: IC50 HBsAg)
1 | COCCN1CCN(c2nc3ccc(-n4cc(C(=O)O)c(=O)cc4-c4ccc(N5CCCC5)c(Cl)c4)cc3s2)CC1 [Example 6-5, 6-(3-chloro-4-(pyrrolidin-1-yl)phenyl)-1-(2-(4-(2-methoxyethyl)piperazine-1-yl)benzo[d]thiazol-6-yl)-4-oxo-1,4-dihydropyridine-3-carboxylic acid] | 7.12 | 7.21 |  | 
2 | COC[C@H]1CCCN1c1nc2ccc(-n3cc(C(=O)O)c(=O)cc3-c3ccc(N4CC[C@@H](OC)C4)cc3)cc2s1 [Example 10-2, 1-(2-((R)-2-(methoxymethyl)pyrrolidin-1-yl)benzo[d]thiazol-6-yl)-6-(4-((R)-3-methoxypyrrolidin-1-yl)phenyl)-4-oxo-1,4-dihydropyridine-3-carboxylic acid] |  |  | 8.28 | 8.57
